Experimental data as given in patent US10548994B1, “Control of chronic neuropathic pain and allodynia” (STC.UNM, priority 2013, dated 2020).
Entries after “also recorded” stand apart in the source; their conditions may differ.

Key:
[1] = system: leukocytes; conditions: prior work; cited from earlier work
[2] = system: rats with sciatic nerve chronic constriction injury (CCI); test: Sciatic nerve chronic constriction injury (CCI) allodynia, von Frey test; format: in vivo, rat; conditions: for reversal of CCI-induced mechanical allodynia: 10 days after CCI
Excerpt: Glial (astrocytes, microglia, satellite & Schwann) cells are recognized as contributing to the development and maintenance of neuropathic pain [86]. Glia are well-known to serve a number of housekeeping functions for healthy neuronal communication. […] Glia have receptors for and are activated by invading pathogens, neuropeptides and neurotransmitters. Once activated, glia can contribute to persistent pathological pain by responding to and releasing factors that act on both neurons and surrounding glia. Classic immune signals include the pro-inflammatory cytokines, interleukin-1 (IL-1β) and tumor necrosis factor-alpha (TNF-α), and chemokines such as CCL2 [139, 142]. Chronic constriction injury (CCI) is a well-characterized animal model that involves both inflammation and trauma around one sciatic nerve. Loose sciatic nerve ligation of 4 sutures produces allodynia in hind paws of rodents. Allodynia in rodents is often measured by hind paw responses to low threshold mechanical stimuli (von Frey test). Clinically, allodynia is well-documented as a common problem for neuropathic pain patients, and the von Frey test is a highly validated assessment tool for allodynia. Several gene therapy vector approaches for neuropathic pain control are being pursued for directed delivery to the dorsal spinal cord & DRG (the pain compartments) & to specific cell types within those compartments, such as glial cells in the DRG (satellite & Schwann cells) or astrocytes and microglia in the dorsal horn of the spinal cord, with one recent clinical trial underway.
We sought to identify the best vector system, either of the viral-based adeno-associated virus (AAV) or the non-viral DNA-based vector (plasmid DNA; pDNA), to achieve therapeutic pain control when delivered to the spinal subarachnoid space (IT). […] While successful, the viral vectors were short-lived in their effects when one considers clinical neuropathic pain control. […] While continued progress toward designing improved viral vector systems may be worthy of future exploration, the optimal vector identified for long-duration pain control during the current grant period was determined to be free pDNA encoding the IL-10 gene (FIG. 2). Behavioral pain assessment is conducted as previously described. Briefly, rats are placed in a quite, dimly lit room and allowed to habituate to the testing environment for 4 consecutive days, 1 hr/day. Baseline (BL) responses are assessed with a series of graded calibrated filaments (0.4 g-15.0 g) applied to the plantar surface of the hindpaws for 6 sec, which elicits a reliable paw withdrawal response. The pDNA-based vector used in data described here and in ‘Preliminary Data’ contains inverted terminal repeat (ITRs) palindromic nucleotide sequences that are residual components from the original AAV vector and provide additional promoter activity, albeit, somewhat weak.. Therefore ITRs would only serve to augment the transcription driven by the expression cassette. The transcriptional cassette contains the cytomegalovirus enhancer/chicken b-actin promoter (CB-actin promoter), an intronic region, the rat IL-10 gene with a spontaneous point mutation (F129S) and the SV40 polyadenylation signal region.
The animal models used in the experiments of this example extend to the well characterized & widely used model of peripheral neuropathy—sciatic nerve chronic constriction injury which combines both direct trauma plus inflammation to the sciatic nerve. When the peripheral nerves become unhealthy, neuropathic pain often ensues. This model combines both inflammation from loosely tied chromic gut ligatures that leads to a localized inflammation followed by slight constriction. In this model, spinal cord glia are activated, PICs are produced and blocking the actions of glia & PICs prevents and reverses neuropathic pain.
This stimulus elicits a paw withdrawal response. Under normal conditions, rats respond to about 10 g of pressure. […]

[3] = system: RAW 264.7 macrophage cells; test: LPS-induced NO production in RAW 264.7 macrophage cells; format: cell-based, mouse; conditions: NorBIRT 500 ng/ml pre-treatment 1, 2, 4 h; LPS 500 ng/ml 24 h
Method: The ability of NorBIRT to inhibit LPS-induced NO production in RAW 264.7macrophage cells was tested. Cells were pre-treated with NorBIRT (500 ng/ml) for 1, 2, and 4 h then exposed to LPS (500 ng/ml) for 24 h.

[4] = system: TNF-α; test: TNF-α protein (ELISA) in LPS stimulated RAW 264.7 cells; format: cell-based, mouse; conditions: NorBIRT 500 ng/ml 1 h, LPS 500 ng/ml 4 and 24 h
Method: In this experiment, cells were incubated with NorBIRT (500 ng/ml; 1 h) and after treatment with LPS (500 ng/ml; 4 and 24 h) the protein levels of TNF-α was evaluated by ELISA.

[5] = system: IL-1β; test: IL-1β (ELISA) in supernatants and cell lysates of LPS-stimulated RAW 264.7 cells; format: cell-based, mouse; conditions: NorBIRT 500 ng/ml pretreatment, LPS 500 ng/ml
Method: Additionally, RAW 264.7 cells were pretreated with 500 ng/ml of NorBIRT and were stimulated with LPS (500 ng/ml). The levels of IL-1β were measured by ELISA, (A) supernatants and (B) celllysates. […] FIG. 22 illustrates that NorBIRT inhibits LPS-stimulated expression of IL-1β in RAW 264.7 cells.
(§1) Given the intriguing profile of NorBIRT's actions on reversing allodynia, we examined whether NorBIRT additionally altered proinflammatory cytokine levels. […] Intracellular IL-1b requires enzymatic cleavage to produce the mature released form. […] Thus NorBIRT is blocking the release of mature IL-1b. […] So, NorBIRT may additionally have anti-inflammatory properties.

[6] = system: IL-10; test: IL-10 protein (ELISA) in LPS-stimulated RAW 264.7 cells; format: cell-based, mouse; conditions: co-incubation with NorBIRT and LPS 500 ng/ml
Method: Protein levels of Il-10 were evaluated using ELISA.
as §1

[7] = system: CCL2; test: LPS-stimulated CCL2 production in RAW 264.7 cells; format: cell-based, mouse; conditions: NorBIRT 500 ng/ml 1 h; LPS 500 ng/ml 24 h; supernatants and cell lysates
Method: RAW 264.7 cells were also pretreated with NorBIRT (500 ng/ml) for 1 h before being incubated with LPS (500 ng/ml) for 24 h. The culture supernatant was analyzed for CCL2 production in both, supernatants and celllysates.

[8] = system: LFA-1; test: LPS-stimulated LFA-1 protein expression (ELISA, cell lysates) in RAW 264.7 cells; format: cell-based, mouse; conditions: NorBIRT 500 ng/ml 2 and 4 h, LPS 500 ng/ml 24 h
Method: Further, RAW 264.7 cells were pretreated with NorBIRT (500 ng/ml) for 2 and 4 h before being incubated with LPS (500 ng/ml). After 24 h of incubation, LFA-1 was measured in celllysates by ELISA.

[9] = system: RAW 264.7 cells; test: Mouse macrophage cell migration in response to CCL2; format: cell-based; conditions: recombinant mouse CCL2 (2D-100 ng/ml)
Method: Mouse macrophages cell migration in response to CCL2 was assessed with recombinant mouse CCL2 (2D-100 ng/ml) in RAW 264.7 cells. Latrunculin was used as a positive control to inhibit cell migration.

[10] = system: RAW 264.7 cells; test: WST-1 cytotoxicity/viability assay; format: cell-based, mouse; conditions: 50, 100, SOO, and 1000 ng/ml, 24 h
Method: RAW 264.7 cells were treated with NorBIRT for the indicated concentrations (50, 100, SOO, and 1000 ng/ml) for 24 h. Cytotoxicity was analyzed using an WST-1 assay. The WST-1 conversion assay was based on the mitochondrial function of intact cells.

[11] = system: 111In-leukocytes in lumbosacral spinal canal of CCI rats; test: SPECT/CT imaging of 111In-labeled leukocyte accumulation in lumbosacral spinal canal; format: in vivo, rat; conditions: NorBIRT injected vs saline
Excerpt: Initially, we determined that peripheral leukocytes accumulate in spinal regions that are necessary for pain signaling. We used a small animal SPECT/CT imaging system (single-photon emission computerized tomography) which was very similar to PET imaging, but which had better resolution. […] Blocking spinal leukocyte accumulation may be a novel therapeutic target promising for future clinical applications.
We next investigated whether peripheral immune cells in addition to spinal glia could participate in ongoing pain changes. First, it was determined whether leukocytes could extravasate into the lumbosacral region during ongoing neuropathy. Peritoneal leukocytes from same-strain donor rats were collected and labeled with a gamma-emitting radio-isotope […] and injected i.v. into either CCI or sham treated rats. Biodistributions were examined using a small animal SPECT/.
We quantified radioactivity—in uCis—in very discrete spinal regions of interest related to incoming sciatic pain information. We determined discrete differences in the levels of uCi activity within specific Lumbar vertebra and from the underlying L4-L6 spinal canal, even the associated intervertebral disc regions. We analyzed the L4-L6 spinal canal

[12] = system: rats with sciatic nerve chronic constriction injury (CCI); conditions: IT IL-10 protein 4 hr prior to IT pDNA-IL10; cited from earlier work
[13] = system: innate immune cells (macrophage, dendritic cells); conditions: IT IL-10 protein 4 hr prior to IT pDNA-IL10; cited from earlier work
[14] = i.t. 10-fold higher dose of NorBIRT (Example 10)

**Q.** For `CN1C(=O)N(c2cc(Cl)cc(Cl)c2)C(=O)[C@@]1(C)Cc1ccc(Br)cc1` [BIRT-377, reference compound], which “antiproliferative and anti-migratory properties of leukocytes” value [1] is on record?
**A.** exert antiproliferative and anti-migratory properties

**Q.** Which “time of return of allodynia” value ([2]; intrathecal IL-1 receptor antagonist) does the source give for “IL-1 receptor antagonist: blocks spinal cord actions of IL1; drug with short half-life” here?
**A.** ≤ 24 h

**Q.** And the effect on allodynia ([2]; intrathecal, after CCI)?
**A.** completely abolishes

**Q.** With `C[C@@]1(Cc2ccc(Br)cc2)C(=O)N(c2cc(Cl)cc(Cl)c2)C(=O)N1CCCCCN` [NorBIRT] as the molecule, how does the “LPS-induced NO production” value [3] read?
**A.** inhibits

**Q.** What about the “expression (protein levels) of TNF-α” value [4] of the same molecule?
**A.** attenuates

**Q.** What about the “IL-1β release / LPS-stimulated expression (supernatants)” value [5] of the same molecule?
**A.** reduced; also recorded: attenuated; also recorded: inhibits

**Q.** What about the “intracellular IL-1β (cell lysates)” value [5] of the same molecule?
**A.** substantially increased

**Q.** What about the “IL-10 protein levels / release” value [6] of the same molecule?
**A.** increases; also recorded: dose-dependently increased

**Q.** What about the “LPS-stimulated CCL2 production” value [7] of the same molecule?
**A.** does not inhibit

**Q.** And the “LPS-stimulated LFA-1 protein expression” value [8]?
**A.** inhibits

**Q.** What about the “macrophage cell migration in response to CCL2” value [9] of the same molecule?
**A.** inhibits

**Q.** What about the “viability of RAW 264.7 cells” value [10] of the same molecule?
**A.** does not affect

**Q.** What about the change in allodynia ([2]; 500 ng i.v. NorBIRT vs saline, 48 and 72 hrs later) of the same molecule?
**A.** significant change; also recorded: reverses

**Q.** And the allodynia fully returned ([2]; after i.t. NorBIRT (Example 11))?
**A.** ≤ 10 days

**Q.** And the “reversal of 45-day enduring allodynia” value ([2]; higher dose i.t. NorBIRT on day 45)?
**A.** substantially reversed

**Q.** What about the reversal of allodynia ([2]; i.t. 5 ng NorBIRT vs saline (Example 10)) of the same molecule?
**A.** very modestly reversed

**Q.** And the return of allodynia [2, 14]?
**A.** ≤ 9 days

**Q.** And the reversal of allodynia [2, 14]?
**A.** substantial reversal

**Q.** What about the “reversal of 10-day CCI-induced bilateral mechanical allodynia” value ([2]; i.t. NorBIRT vs i.t. vehicle (Example 11)) of the same molecule?
**A.** reversed

**Q.** And the “time of peak effect after injection” value ([2]; i.t. NorBIRT, compared to sham controls)?
**A.** four

**Q.** And the effect on allodynia ([2]; i.t. higher dose 100 ng vs vehicle (Example 11))?
**A.** dramatic reversal

**Q.** What about the effect on allodynia ([2]; i.t. low dose 5 ng vs vehicle (Example 11)) of the same molecule?
**A.** lacking effects

**Q.** And the effect on allodynia ([2]; i.v. 5000 ng)?
**A.** attenuated allodynia bilaterally

**Q.** And the effect on allodynia ([2]; i.v. 100 000 ng)?
**A.** attenuated allodynia bilaterally

**Q.** What about the “dose-dependent reversal from allodynia” value ([2]; i.v. low dose, 5 days after injection, vs saline) of the same molecule?
**A.** did not produce

**Q.** What about the “reversal of CCI-induced mechanical allodynia” value ([2]; i.v. low dose, second experiment) of the same molecule?
**A.** did not reverse

**Q.** And the “dose-dependent reversal from allodynia” value ([2]; i.v. low dose, throughout 8 days after injection, vs Sham)?
**A.** does not produce

**Q.** And the “reversal of CCI-induced mechanical allodynia” value ([2]; i.v., relatively high doses, first experiment)?
**A.** reverses

**Q.** And the “leukocyte accumulation (uCi signal) in lumbosacral spinal canal” value [11]?
**A.** no signal

**Q.** What about the “antiproliferative and anti-migratory properties of leukocytes” value [1] of the same molecule?
**A.** exert antiproliferative and anti-migratory properties

B1: IL-10 protein: IT IL-10 protein (without transgene) (protein, UniProt P22301 19-178, looked up)
Interleukin-10: SPGQGTQSENSCTHFPGNLPNMLRDLRDAFSRVKTFFQMKDQLDNLLLKESLLEDFKGYLGCQALSEMIQFYLEEVMPQAENQDPDIKAHVNSLGENLKTLRLRLRRCHRFLPCENKSKAVEQVKNAFNKLQEKGIYKAMSEFDIFINYIEAYMTMKIRN
**Q.** What does the source list for B1?
**A.** long duration pain relief after IT pDNA-IL-10 [12]: prevented; cellular enrichment in surrounding CSF after IT pDNA-IL10 [13]: prevented
